This is an account of results in PMC7841069, “Identification of Chalcone Derivatives as Inhibitors of Leishmania infantum Arginase and Promising Antileishmanial Agents” (Frontiers in Chemistry, 2021).

Data set [1] relates to RAW 264.7 macrophages. As to the kind of experiment: Cytotoxicity assay (MTT). Format: cell-based. The following applies: 48 h. Here is the method: (§1) RAW 264.7 macrophages were cultured in DMEM medium (Sigma-Aldrich, USA) supplemented with 10% fetal bovine serum at 37°C in 5% CO2 atmosphere. Cells were plated on 96-well microplates at a density of 10^5 cells/well and incubated at 37°C in 5% CO2 for 2 h. After this period, increasing concentrations of inhibitors (0.9–4,307 μM) were added and the cultures were incubated at 37°C in 5% CO2 for 48 h. Subsequently, cell viability was measured by a colorimetric assay using 3-(4,5-dimethylthiazol-2-yl)-2,5-diphenyl tetrazolium bromide (MTT) (Sigma-Aldrich, USA). MTT was added to the culture medium at a final concentration of 1.0 mg/mL, and cultures were incubated at 37°C in 5% CO2 for 3 h. MTT was transformed by the living cells in formazan crystals that were dissolved in DMSO. The concentration of formazan was measured spectrophotometrically at 570 nm (SpectraMax M5, Molecular Devices, CA). The 50% cytotoxic concentration (CC50) values were determined by the nonlinear regression fits of the dose-response curves using GraphPad Prism 8.0. All measurements were performed in triplicates, twice independently.

Another data set in a line: Cytotoxicity assay (MTT). The class given is cell-based. The following applies: mouse, read-out: RAW 264.7 CC50 ± SE. On the procedure:
as §1

For data set [2], the system named is Leishmania infantum promastigotes. Nature of the data set: Activity against Leishmania infantum promastigotes (resazurin). Format: cell-based. The settings on record: for IC50: Leishmania infantum, read-out: Promastigotes IC50 ± SE; for Selectivity Index PRO: CC50 host cell / IC50 promastigotes. On the procedure: Promastigotes of Leishmania infantum strain MHOM/BR/1974/PP75 were cultured in Schneider's medium supplemented with 10% fetal bovine serum at 26°C. First, the selected LiARG inhibitors were diluted in culture medium at concentrations ranging from 2.9 to 1,723.0 μM. Then, late-exponential phase (after 96 h growth) L. infantum promastigotes, at a final density of 10^5 parasites/mL, were incubated with previously diluted inhibitors at 26°C for 96 h. Subsequently, parasite viability was determined by a colorimetric assay using resazurin (Sigma-Aldrich, USA). Resazurin was added to the culture medium at a final concentration of 0.001% (w/v), and cultures were further incubated at 26°C for 4 h (Rólon et al., [2006]). Resazurin is reduced to resorufin by living cells, and the relative concentration of resorufin/resazurin was measured spectrophotometrically at 570/600 nm (SpectraMax M5, Molecular Devices, CA), respectively. Fungizone® (2.0–650.0 nM) was used as the reference drug. The 50% inhibitory concentration (IC50) values were determined by the nonlinear regression fits of the dose-response curves using GraphPad Prism 8.0. All measurements were performed in triplicates, twice independently.
(§2) The selectivity index for promastigotes and intracellular amastigotes of L. infantum was calculated by taking the ratio between the CC50 obtained for the host cell and the IC50 obtained for the parasite. Inhibitors displaying selectivity index > 10 were considered low cytotoxic (Katsuno et al., [2015]).
(Resazurin is reduced to fluorescent resorufin, in cell work by metabolically active cells.)

In data set [3] the test system is RAW 264.7 macrophages. Also noted: method as in Ventura et al. (2015). The settings on record: ref Ventura et al. (2015), read-out: IC50 for NO; cited from earlier work.
Data set [4] deals with Leishmania infantum intracellular amastigotes. As to the kind of experiment: Activity against intracellular amastigotes (promastigote recovery assay). Format: cell-based. The following applies: for Selectivity Index AMA: CC50 host cell / IC50 intracellular amastigotes. On the procedure: (§3) Intracellular anti-amastigote activity was determined using the promastigote recovery assay with minor modifications (Ferreira et al., [2017]). RAW 264.7 macrophages were plated on 96-well microplates at a density of 10^5 cells/well and incubated at 37°C in 5% CO2 for 2 h. After this period, adherent cells were washed twice with phosphate buffered saline (PBS, pH 7.2) and infected with stationary-phase L. infantum promastigotes at a 10:1 parasite/macrophage ratio. After 4 h of infection at 37°C in 5% CO2, free parasites were removed by a wash step with PBS and infected macrophages were incubated for an additional 24 h to allow parasite differentiation into amastigotes. Then, infected cells were treated with increasing concentrations of selected LiARG inhibitors (11.0–54.0 μM) for 48 h. After this period, the culture supernatant was collected for the evaluation of NO production by the Griess reaction (Misko et al., [1993]), and cells were washed with PBS. Subsequently, PBHIL medium supplemented with 5% fetal bovine serum was added and the cultures were incubated at 26°C for 72 h to recover L. infantum promastigotes. Only viable amastigotes can differentiate into promastigotes. Then, parasite viability was determined by a colorimetric assay using MTT (1.0 mg/mL) (Sigma-Aldrich, USA), as described earlier. Fungizone® (130–540 nM) was used as the reference drug. Results were expressed as percentages of viability in relation to the control (100% viability). The 50% inhibitory concentration (IC50) values were determined by the nonlinear regression fits of the dose-response curves using GraphPad Prism 8.0. All measurements were performed in triplicates, twice independently.
as §2

Data set [5] has as its system L. infantum-infected macrophages. Nature of the data set: NO production by L. infantum-infected macrophages (Griess reaction). Format: cell-based. The following applies: 11–54 μM, 48 h, vs untreated control. On the procedure: as §3
Figure 4 Effect of chalcone derivatives on the production of nitric oxide by L. infantum-infected macrophages. L. infantum-infected macrophages were treated with increasing concentrations of (A–D) chalcone derivatives (11–54 μM) or (E) the reference drug fungizone (0.13–0.54 μM) and nitrite concentration was measured by the Griess reaction. Control represents the amount of nitric oxide produced by L. infantum-infected macrophages in the absence of any treatment. Statistical analysis of the differences between mean values obtained for the experimental groups was done by ANOVA with Tukey's post hoc test.

Data set [6] has as its system Leishmania infantum arginase (LiARG). Nature of the data set: LiARG enzyme inhibition assay (urea formation, UREA CE kit). The following applies: 100 μM inhibitor; control without inhibitor = 100% activity. Format: biochemical. Here is the method: LiARG expression and purification was performed as described previously (Garcia et al., [2019]). Escherichia coli BL21 (DE3) cells were transformed with RP1B-LiARG. Cells were grown at 37°C until mid-exponential phase (Abs600 ~ 0.6). Protein expression was induced with 1 mM IPTG and cells were grown for 16 h at 30°C. Cells were harvested by centrifugation, resuspended in lysis buffer [50 mM Tris-HCl (pH 8.0), 500 mM NaCl, 5 mM imidazol, 0.1% Triton-X 100, 250 μM PMSF, 10 mM β-mercaptoethanol] and lysed by sonication (15 cycles 60 s on and 60 s off, 100 W). The cell lysate was centrifuged (8,000 X g, 40 min, 4°C), and the clarified supernatant was loaded onto a His-Trap HP column (GE Healthcare, USA). A wash step with 100 mM manganese chloride was carried out for enzyme activation. LiARG was eluted with an imidazole gradient ranging from 5 to 500 mM. […] LiARG activity was measured using the UREA CE kit (Labtest, Brazil). Urea concentration was determined spectrophotometrically (SpectraMax M5, Molecular Devices, CA) by hydrolyzing urea into ammonia and then converting ammonia into indophenol blue, which absorbs light at 600 nm ([…] and Scott, [1960]). Enzyme activity was measured with 0.2 μg/mL LiARG incubated with 50 mM L-arginine in 50 mM CHES (pH 9.5) at 37°C for 5 min. […] The results are expressed as percentage of LiARG activity taking the enzymatic activity of the control as 100%. […]

Data set [7] relates to Leishmania amazonensis arginase (LaARG). Also noted: method as in da Silva et al. (2019). The following applies: 100 μM; ref da Silva et al. (2019); cited from earlier work.
Setting [8] is: Leishmania infantum, Macrophage, 48 h, infected macrophages treated 48 h, promastigote recovery, MTT, read-out: Amastigotes IC50 ± SE.

In general, CC50 refers to the concentration that lowers cell viability or growth by half. Usually IC50 stands for the concentration needed to halve the response being measured.

SMILES strings stand for the structures. Where two headings read alike, the source gives them in different places. Where only a bound is given, the exact number is not on record here.

As to `O=C(c1ccccc1)C(C(O)c1ccccc1Cl)C(O)c1ccccc1Cl` (stereo not shown) [LC37, 3-hydroxy-2-[-hydroxy(2-Chlorophenyl)methyl]-3-(2-Chlorophenyl)-1-phenyl-1-Propanone], in the data set on RAW 264.7 macrophages [1], the “RAW 264.7 CC50 ± SE” value is “did not inhibit the growth of RAW 264.7 macrophages at the highest concentration tested”. Also, the CC50 at 48 h in “Cytotoxicity assay (MTT)” (RAW 264.7 macrophages) was over 4 mM. In data set [2] (96 h, resazurin), the “Promastigotes IC50 ± SE” value is “did not display in vitro activity” and the IC50 is over 1500 µM.
As to `COc1ccc(C(=O)C=Cc2ccc([N+](=O)[O-])cc2)cc1` [LC41, 1-(4-Methoxyphenyl)-3-(4-Nitrophenyl)-2-Propen-1-one], in “Cytotoxicity assay (MTT)” (RAW 264.7 macrophages), the CC50 at 48 h is 1.15 mM. Also, the IC50 in the data set on RAW 264.7 macrophages [3] is 13.5 ± 5.5 µM; in data set [4] (setting [8]) it was 70.4 ± 9.6 µM; in data set [4] (infected macrophages treated 48 h, promastigote recovery, MTT, read-out: Amastigotes IC50 ± SE), 43.7 ± 13.7 µM; in data set [2] (96 h, resazurin), 319 ± 14.3 µM. Moreover, the “Selectivity Index AMA” value in data set [4] is listed as 26.2. Further, in data set [5], the “production of NO by L. infantum-infected macrophages” value (“production of NO” for short) is “significantly decreased”. Also, the “Selectivity Index PRO” value in data set [2] came to 3.6.
Regarding `O=c1c(O)c(-c2ccc(O)c(O)c2)oc2cc(O)cc(O)c12` [quercetin], the “ARGLi inhibition (%) (100 μM)” value in data set [6] came out at 67.1 ± 10.3%.
Consider `O=C(C=Cc1ccc(F)cc1)c1ccccc1Cl` [LC32, 1-(2-Chlorophenyl)-3-(4-fluorophenyl)-2-Propen-1-one], for which the CC50 at 48 h in “Cytotoxicity assay (MTT)” (RAW 264.7 macrophages) stood at 0.479 ± 0.0195 mM. In addition, the “Selectivity Index AMA” value in data set [4] is reported as 4.3. In addition, the IC50 was 112 ± 19.8 µM in data set [4] (setting [8]) and 74.1 ± 10.9 µM in data set [2] (96 h, resazurin). In addition, the “production of NO” value in data set [5] was “significantly decreased”. The “Selectivity Index PRO” value in data set [2] is given as 6.5.
`COc1ccc(C=CC(=O)c2ccc(Br)cc2)cc1OC` [LC14, 1-(4-bromophenyl)-3-(3,4-dimethoxyphenyl)-2-Propen-1-one]: the CC50 at 48 h in “Cytotoxicity assay (MTT)” (RAW 264.7 macrophages) is 0.0751 ± 0.0089 mM. Moreover, the IC50 in the data set on RAW 264.7 macrophages [3] is 58.9 ± 6.8 µM; in data set [2] (96 h, resazurin), 283 ± 14.2 µM. Moreover, in data set [2], the “Selectivity Index PRO” value was under 1.
On to `O=C1c2c(O)cc(O)cc2OC(c2ccc(O)c(O)c2)C1O` (stereo not shown) [taxifolin], for which the LaARG inhibition in data set [7] is 88%.
In the case of `COc1ccc(/C=C/C(=O)c2ccccc2Cl)cc1` [LC34], the CC50 at 48 h in “Cytotoxicity assay (MTT)” (RAW 264.7 macrophages) is 3.01 mM. The “Selectivity Index AMA” value in data set [4] was found to be 46.0. Also, the IC50 in data set [4] (setting [8]) stood at 65.4 ± 10.9 µM; in data set [2] (96 h, resazurin) it was 747 ± 22.3 µM. Moreover, the “production of NO” value in data set [5] was “no significant difference to the untreated control”. Further, the “Selectivity Index PRO” value in data set [2] is on record as 4.0.
With `O=C(C=Cc1ccc([N+](=O)[O-])cc1)c1ccc(Br)cc1` [LC39, 1-(4-Bromophenyl)-3-(4-Nitrophenyl)-2-Propen-1-one], the CC50 at 48 h in “Cytotoxicity assay (MTT)” came out at 4.53 ± 0.212 mM. Also, the “Selectivity Index AMA” value in data set [4] is listed as 107.1. Also, the IC50 in data set [4] (Leishmania infantum, Macrophage, 48 h, read-out: Amastigotes IC50 ± SE, infected macrophages treated 48 h, promastigote recovery, MTT) is 55.2 ± 3.8 µM; in data set [4] (read-out: Amastigotes IC50 ± SE, infected macrophages treated 48 h, promastigote recovery, MTT) it was 42.3 ± 17.1 µM; in data set [2] (96 h) it was 398 ± 44.2 µM. The “production of NO” value in data set [5] was “no significant difference to the untreated control”. For the same compound, in data set [2], the “Selectivity Index PRO” value was 11.4.
